Test results reported in patent publication US20240358727A1, “MICROSCALE THERMOPHORESIS TO EVALUATE CHANNEL LIPID INTERACTIONS AND METHODS OF TREATING NAV CHANNELS RELATED DISEASES” (Northeastern University, priority 2023, published 2024).
“Also recorded” adds a separate entry of the source.

Legend:
[1] = target: T1, free GFP (Aequorea victoria, UniProt P42212); test: MST binding of diC8-PIP2 to free GFP (negative control)
T1 construct: expressed in transfected cells; host or cells: cell lysate
Experimental: The method utilizes cell lysates obtained from transfected/infected cells that are lysed and incubated with varying concentrations of a water-soluble analogue of PIP2 commercially available as diC8-PI(4,5)P2, in a 384 well plate. Other phosphoinositides such as diC8PI(4)P of diC8PI(5)P can also be utilized. After a brief incubation (10-30 mins) samples are loaded onto capillary chips purchased from the company Nanotemper. Samples are run on the Nanotemper Monolith instrument. This instrument is advertised to detect green fluorescent protein (GFP) tagged proteins, however we have also used TFP (teal FP) tagged proteins. The instrument provides a short infra-red laser pulse which produces a short thermal gradient. Protein that is interacting with the lipid migrates differently through this thermal gradient and its movement is evaluated by the fluorescence of the GFP/TFP tag on the protein. Based on the concentration of the dic8-phosphoinositide, this resolves into a sigmoidal relationship that delivers an apparent affinity (Kd) value. A test ligand can be added to this assay at a known concentration that is at or close to its Kd for the channel. A shift in the channel's affinity for PIP2 in this assay can help indicate whether this test compound is a good drug candidate for further biological experiments.
Results. […]

[2] = target: T2, Nav1.5-R1644C (Homo sapiens, UniProt Q14524, R1644C); test: Whole-cell patch-clamp ILATE of Nav1.5-R1644C in HEK293T cells with CRY2-5POCRL; assay type: cell-based
T2 construct: expressed in transfected cells; host or cells: HEK293T
Experimental: This is opposed when by 200 μM diC8-PIP2 in the pipette. Comparisons are Students t-test, *** P<0.01, ****P0.001 for 4-6 cells per group.
Results. Our studies were designed to evaluate PIP2-regulation for Nav1.5 channelopathies from multiple perspectives. Given that there is a lack of structural data to identify where, or how many PIP2 molecules bind to Nav1.5, we performed a docking simulation to identify putative PIP2 binding sites in the open, rat and human Nav1.5 cryoEM structures (PDB: 6UZ3 and 7DTC) (56-58). We observed four potential PIP2 binding sites at the boundary between the inner leaflet of the membrane and the cytoplasm with one at the interface between each voltage sensor and the channel body. In each case, we noted electrostatic and hydrogen bond interactions between the headgroup of PIP2 and multiple disease associated residues. Among these, we elected to perform functional studies on Nav1.5-R1644C, an LQT3 mutant located between the S4 and S5 transmembrane segments of DIV. We expressed wild type Nav1.5 or Nav1.5-R1644C with Nav1β, CIBN-CAAX and CRY2-5POCRL in HEK293T cells and studied ILATE with and without optogenetic dephosphorylation of PIP2. In wild-type Nav1.5, ILATE was 0.25±0.1% of the peak (n=8) whereas in […], ILATE was 1.2±0.2% of peak (n=8, P<0.01, unpaired t-test comparison to WT). Dephosphorylation of PIP2 elevated ILATE in both channels to ˜4% of the peak but did so more rapidly for Nav1.5-R1644C. Thus, WT Nav1.5 ILATE plateaued after 180±15 s of optogenetic dephosphorylation compared to 86±22 s in Nav1.5-R1644C channels (n=8 for both experiments). […] Next, we used the Monolith Nanotemper system to establish a microscale thermophoresis (MST) approach to measure the binding affinity of PIP2 for Nav1.5 channels. MST measures the mobility of the GFP-tagged protein in response to an IR-laser pulse. Ligand binding alters the motion of the target protein, allowing the user to generate a binding curve and extracting a binding constant (Kd) (FIG. 6A). First, we studied GFP-Nav1.5 expressed in HEK293T cells along with Navβ1.
Next, aimed to test the hypothesis that the relationship of PIP2 with the channel in certain disease-associated variants is altered. We employed a variant of Nav1.5 identified in patients with Long QT Syndrome Type 3, Arg1644→C and assessed it sensitivity to the widely used 5P-OCRL construct. We observed a right shift in the G-V curve and an increase in the ILATE over WT conditions as well as a further increase following blue light induction of PIP2 dephosphorylation. We then used the patch pipette to enrich cells expressing these channels with diC8PI(4,5)P2. We observed that the enhanced ILATE observed under control conditions is mitigated by the inclusion of diC8PIP2 in patch pipette while the shift in the G-V is not rescued by the inclusion of diC8PI(4,5)P2 in the pipette.

CCCCCCCC(=O)OC[C@H](COP(=O)(O)O[C@@H]1[C@H](O)[C@H](O)[C@@H](OP(=O)(O)O)[C@H](OP(=O)(O)O)[C@H]1O)OC(=O)CCCCCCC [diC8-PIP2]
Kd [1]: > 800 µM
binding of diC8-PIP2 to free GFP ([1]; MST negative control): does not bind
effect on elevated baseline ILATE ([2]; 200 μM diC8-PIP2 in pipette): ameliorated; also recorded: abolishing; also recorded: decreased
effect on elevation in ILATE following optogenetic stimulation of CRY2-5POCRL ([2]; 200 μM diC8-PIP2 in pipette): opposed
effect on more rapid rise of ILATE on PIP2 dephosphorylation ([2]; 200 μM diC8-PIP2 in pipette): opposed
effect on elevated baseline ILATE ([2]; 200 μM diC8-PIP2 in pipette, listed as diC8PIP2): mitigated
ILATE ([2]; 200 μM diC8-PIP2 in pipette, without diC8-PIP2 1.2±0.2): 0.46±0.1 % of peak INa
effect on right shift in the G-V ([2]; diC8PI(4,5)P2 in pipette): not rescued
